Converted amounts (≈) assume the structure as drawn. Like-named read-outs stand apart in the source and are kept apart here.
Assays:
S. aureus ATCC 2592 [1] = experiment: Disk diffusion; type: cell-based
MRSA clinical strain [2] = experiment: Disk diffusion; type: cell-based, methicillin resistant S. aureus
MRSA clinical strain [3] = experiment: Broth microdilution MIC determination; type: cell-based, methicillin resistant S. aureus; settings: for MIC: Staphylococcus aureus, 24 h
[4] = Maximum solubility in DMSO (stock solution); type: physicochemical; settings: 100% DMSO, organic solvent or mixture, thermodynamic from solid
Experimental: (§1) solutions of 2-(bromoacetamido)phenylboronic acid were prepared by gradually dissolving 2-(bromoacetamido)phenylboronic acid to the maximum solubility in 100% DMSO (1 mg/ml). Similarly standard stock solution of Vancomycin and Penicillin (1 mg/ml) were used as positive controls.

E. coli ATCC 8739 [5] = experiment: Disk diffusion; type: cell-based
Experimental: (§2) The following bacterial strains were used; S. aureus ATCC 29350, E. coli ATCC 8739, and P. aeruginosa ATCC 27853. The cultivation medium for P. aeruginosa and E. coli were tryptone soy Agar (Oxoid, UK), and, 5% defibrinated sheep blood added to columbia blood agar base (Oxoid, UK). The bacterial cultures were aerobically grown at 37° C. for 24 hrs. For antimicrobial testing, the bacterial cultures were prepared by picking colonies from logarithmic phase of growth and suspended in 5 ml of Mueller Hinton broth with suitable supplements. The bacterium inoculum sizes were adjusted to 10^8 CFU/ml for all strains.
as §1
(§3) For the disk diffusion assay, bacterial suspensions were prepared to the standard McFarland's (0.5) and subsequently uniformly spread on a solid growth medium in a Petri dish. Sterile paper disks (6 mm in diameter; oxoid, UK) were placed on the surface of each agar plate and were impregnated with 30 μL to a final concentration of 600 ug/ml of each agent to be tested. The plates were incubated for the recommended time periods (18-24 hrs) under appropriate cultivation conditions. Antibacterial activity was determined by measuring an inhibition zone around a disk following the incubation. Disks impregnated with sterile distilled water, DMSO served as negative controls and disks with standard antibiotics Vancomycin and penicillin (Oxoid, UK) served as positive controls. Triplicates at each concentration were performed and the average of the results was taken.

P. aerugionsa ATCC 27853 [6] = experiment: Broth microdilution MIC determination; type: cell-based, P. aeruginosa; settings: for MIC: Pseudomonas aeruginosa
Experimental: as §2, §1
For the broth microdilution test, 100 μL of each bacterial suspension in suitable growth medium was added to the wells of a sterile 96-well microtitre plate already containing 100 μL of two-fold serially diluted 2-(bromoacetamido)phenylboronic acid or vancomycin and penicillin in proper growth medium. The final volume in each well was 200 μL. Control wells were prepared with culture medium, bacterial suspension only compound only and DMSO in amounts corresponding to the highest quantity present. […] To indicate cell viability, the presence of a purple color was determined after adding 20 μL/well of 500 ug/ml MTT (3-(4,5-Dimethylthiazol-2-yl-2,5-diphenyltetrazolium bromide, Sigma) and incubated under appropriate cultivation conditions (37° C. for 3 hrs). To determine the formation of formazan by living cells, OD570 was measured by a Microplate Reader (Thermoscientific, Finland) after adding 200 μL/well of a solubilizing solution (a mixture of DMSO:ethanol (1:1)). Positive controls were wells with a bacterial suspension in an appropriate growth medium. Negative controls were wells with growth medium and antimicrobial compound. […]

S. aureus ATCC 2592 [7] = experiment: Broth microdilution MIC determination; type: cell-based; settings: Staphylococcus aureus, ATCC2592, 24 h, MTT readout
E. coli ATCC 8739 [8] = experiment: Broth microdilution MIC determination; type: cell-based
Experimental: as §2, §1
For the broth microdilution test, 100 μL of each bacterial suspension in suitable growth medium was added to the wells of a sterile 96-well microtitre plate already containing 100 μL of two-fold serially diluted 2-(bromoacetamido)phenylboronic acid or vancomycin and penicillin in proper growth medium. The final volume in each well was 200 μL. Control wells were prepared with culture medium, bacterial suspension only compound only and DMSO in amounts corresponding to the highest quantity present. […]

Balb/c Mice = experiment: Single dose acute toxicity study and LD50 determination; type: in vivo
Experimental: (§4) Results of Acute Toxicity of 2-(bromoacetamido)phenylboronic Acid in Balb/c Mice
(§5) • a. […] This effect started 30 minutes post treatment. The activity was recovered after 3 hours post treatment (for survived animals). […] The time of deaths was observed as dose dependent. Mice treated with 150 mg/kg died within 18 hours of 2-(bromoacetamido)phenylboronic acid administration while mice treated with 200 mg/kg died within 4 hours post treatment. • e.

[9] = as above; type: in vivo, mice; settings: mouse, in vivo; acute oral, dissolved in DMSO, BALB/c mice; curve generated
Experimental: as §4, §5

P. aerugionsa ATCC 27853 [10] = experiment: Disk diffusion; type: cell-based; settings: P. aeruginosa ATCC 27853
Experimental: as §2, §1, §3

CN[C@H](CC(C)C)C(=O)N[C@H]1C(=O)N[C@@H](CC(N)=O)C(=O)N[C@H]2C(=O)N[C@H]3C(=O)N[C@H](C(=O)N[C@H](C(=O)O)c4cc(O)cc(O)c4-c4cc3ccc4O)[C@H](O)c3ccc(c(Cl)c3)Oc3cc2cc(c3O[C@@H]2O[C@H](CO)[C@@H](O)[C@H](O)[C@H]2O[C@H]2C[C@](C)(N)[C@H](O)[C@H](C)O2)Oc2ccc(cc2Cl)[C@H]1O [Vancomycin, reference compound]
Susceptibility category (S/R) beside zone of inhibition (S. aureus ATCC 2592 [1]): S
Susceptibility category (S/R) beside zone of inhibition (MRSA clinical strain [2]): S
MIC (MRSA clinical strain [3]; MRSA): 0.4 µg/mL (≈ 0.276 µM)

O=C(CBr)Nc1ccccc1B(O)O [2-(bromoacetamido)phenylboronic acid]
zone of inhibition at 600 µg/mL (S. aureus ATCC 2592 [1]; Staphylococcus aureus, ATCC2592, agent concentration as in row label (vancomycin 100 μg/ml, compound 600 μg/ml)): 24 mm
solubility [4]: 1000 µg/mL (≈ 3880 µM)
zone of inhibition at 600 µg/mL (E. coli ATCC 8739 [5]; Escherichia coli, ATCC8739, agent concentration as in row label (ampicillin 20 mg/ml, compound 600 μg/ml)): 16 mm
Growth inhibition (statement in words) (P. aerugionsa ATCC 27853 [6]; P. aeruginosa, general statement of the description, method not named): inhibits the growth
MIC (P. aerugionsa ATCC 27853 [6]; ATCC27853, P. aeruginosa ATCC 27853, 24 h, MTT readout, read-out: MIC): > 600 µg/mL
Growth inhibition (statement in words) (MRSA clinical strain [3]; MRSA, general statement of the description, method not named): inhibits the growth
MIC (MRSA clinical strain [3]; MRSA clinical strain, MTT readout, read-out: MIC): 1.56 µg/mL (≈ 6.05 µM)
MIC (S. aureus ATCC 2592 [7]): 1.56 µg/mL (≈ 6.05 µM)
Growth inhibition (statement in words) (E. coli ATCC 8739 [8]; E. coli, general statement of the description, method not named): inhibits the growth
MIC (E. coli ATCC 8739 [8]; Escherichia coli, ATCC8739, E. coli ATCC 8739, 24 h, MTT readout): 75 µg/mL (≈ 291 µM)
% Death/group (Balb/c Mice; 10 mg/kg single oral dose in DMSO): 0%
% Death/group (Balb/c Mice; 50 mg/kg single oral dose in DMSO): 0%
% Death/group (Balb/c Mice; 100 mg/kg single oral dose in DMSO): 0%
Time of death after administration (Balb/c Mice; 150 mg/kg): ≤ 18 h
% Death/group (Balb/c Mice; 150 mg/kg single oral dose in DMSO): 70%
Time of death after administration (Balb/c Mice; 200 mg/kg): ≤ 4 h
% Death/group (Balb/c Mice; 200 mg/kg single oral dose in DMSO): 70%
Behaviour and clinical signs post administration (Balb/c Mice; 10, 50 and 100 mg/kg): behaved normally
Behaviour and clinical signs post administration (Balb/c Mice; 150 and 200 mg/kg): Reduced activity
Start of reduced activity post treatment (Balb/c Mice; 150 and 200 mg/kg): 30 min
Recovery of activity post treatment (Balb/c Mice; 150 and 200 mg/kg, survived animals): 3 h
Doses showing systemic toxicity and causing death (Balb/c Mice; acute oral, dissolved in DMSO, BALB/c mice): above 100 mg/kg
Change in body weights (Balb/c Mice; all groups): No significant change
Gross autopsy (Balb/c Mice; dead mice and all survivors at day 14): did not reveal any significant findings
% Death/gender (Balb/c Mice; females, 10 mg/kg single oral dose in DMSO): 0%
% Death/gender (Balb/c Mice; females, 50 mg/kg single oral dose in DMSO): 0%
% Death/gender (Balb/c Mice; females, 100 mg/kg single oral dose in DMSO): 0%
% Death/gender (Balb/c Mice; females, 150 mg/kg single oral dose in DMSO): 100%
% Death/gender (Balb/c Mice; males, 10 mg/kg single oral dose in DMSO): 0%
% Death/gender (Balb/c Mice; males, 50 mg/kg single oral dose in DMSO): 0%
% Death/gender (Balb/c Mice; males, 100 mg/kg single oral dose in DMSO): 0%
% Death/gender (Balb/c Mice; males, 150 mg/kg single oral dose in DMSO): 40%
% Death/gender (Balb/c Mice; males, 200 mg/kg single oral dose in DMSO): 80%
LD50 at 14 days [9]: ~130 mg/kg

CC1(C)S[C@@H]2[C@H](NC(=O)[C@H](N)c3ccccc3)C(=O)N2[C@H]1C(=O)O [Ampicillin, reference compound]
Susceptibility category (S/R) beside zone of inhibition (E. coli ATCC 8739 [5]): S
Susceptibility category (S/R) beside zone of inhibition (P. aerugionsa ATCC 27853 [10]): R
MIC (P. aerugionsa ATCC 27853 [6]; ATCC27853, 24 h): 150 µg/mL (≈ 429 µM)
